pIC50: −log10 of the molar value.
Target: human truncated cGAS enzyme (147-522 human cGAS) (Homo sapiens (Human), UniProt Q8N884)
Test: Quantification of cGAS protein inhibition (cGAMP formation measured by LC-MS/MS)
Format: biochemical
Conditions: reported for the potential mixture in solution of co-existing tautomers and/or racemates
Method in brief: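 Human cGAS 147-522 (30 nM) in Tris pH 7.5, NaCl, MgCl2, ZnCl2, Tween 20, started with 5 μM ISD 45 bp dsDNA, 0.5 mM GTP and 0.5 mM ATP. Incubated 1 h at room temperature, then quenched with acetonitrile/TFA. cGAMP quantified by LC-MS/MS against a labelled cGAMP internal standard; IC50 from ratio versus compound concentration.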

human truncated cGAS enzyme (147-522 human cGAS), sequence (Q8N884 147-522): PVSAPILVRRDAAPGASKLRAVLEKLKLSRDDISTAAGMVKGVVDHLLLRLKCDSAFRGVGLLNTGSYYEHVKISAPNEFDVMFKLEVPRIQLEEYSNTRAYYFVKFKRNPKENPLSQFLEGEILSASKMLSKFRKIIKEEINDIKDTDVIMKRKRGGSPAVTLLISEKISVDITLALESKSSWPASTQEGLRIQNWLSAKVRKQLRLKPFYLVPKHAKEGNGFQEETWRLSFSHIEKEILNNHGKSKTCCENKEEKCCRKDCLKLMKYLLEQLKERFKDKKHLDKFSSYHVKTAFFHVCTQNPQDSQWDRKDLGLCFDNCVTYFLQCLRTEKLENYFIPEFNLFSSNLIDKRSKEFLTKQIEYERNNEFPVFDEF

Row | SMILES | pIC50
1 | CN[C@@H](COC)c1nnc(-c2c(-n3ccnc3)c3cc(OC)c(Cl)c(F)c3n2C)[nH]1 [Example 125a, (R)-1-(5-(6-chloro-7-fluoro-3-(1H-imidazol-1-yl)-5-methoxy-1-methyl-1H-indol-2-yl)-4H-1,2,4-triazol-3-yl)-2-methoxy-N-methylethan-1-amine] | 6.74
2 | CNC(COC)c1nnc(-c2c(-n3ccnc3)c3cc(OC)c(Cl)c(F)c3n2C)[nH]1 (racemic) [Example 125, 1-(5-(6-chloro-7-fluoro-3-(1H-imidazol-1-yl)-5-methoxy-1-methyl-1H-indol-2-yl)-4H-1,2,4-triazol-3-yl)-2-methoxy-N-methylethan-1-amine] | 7.13

Results, then the compound that gave them:

Row | pIC50 | SMILES
3 | 6.31 | COCC(c1nnc(-c2c(-n3ccnc3)c3cc(OC)c(Cl)c(F)c3n2C)[nH]1)N1CCC1 (centres unmarked) [Example 127, 2-(5-(1-(azetidin-1-yl)-2-methoxyethyl)-4H-1,2,4-triazol-3-yl)-6-chloro-7-fluoro-3-(1H-imidazol-1-yl)-5-methoxy-1-methyl-1H-indole]
4 | 6.85 | COc1cc2c(-n3ccnc3)c(-c3nnc(C(F)(F)F)[nH]3)n(C)c2cc1Cl [Example 114, 6-chloro-3-(1H-imidazol-1-yl)-5-methoxy-1-methyl-2-(5-(trifluoromethyl)-4H-1,2,4-triazol-3-yl)-1H-indole]

Same assay, conditions: reported for the potential mixture of co-existing tautomers and/or racemates

Row | SMILES | pIC50
5 | COc1cc2c(-c3cn[nH]c3)c(-c3nnc(F)[nH]3)n(C)c2c(F)c1Cl [Example 58, 6-chloro-7-fluoro-2-(5-fluoro-4H-1,2,4-triazol-3-yl)-5-methoxy-1-methyl-3-(1H-pyrazol-4-yl)-1H-indole] | 7.52
6 | OCc1nnc(-c2[nH]c3c(Cl)c(Cl)ccc3c2-c2cn[nH]c2)[nH]1 [Example 36, (5-(6,7-Dichloro-3-(1H-pyrazol-4-yl)-1H-indol-2-yl)-4H-1,2,4-triazol-3-yl)methanol] | 6.47
7 | COc1cc2c(-c3cn[nH]c3)c(-c3nnc(C(F)(F)F)[nH]3)n(C)c2c(F)c1Cl [Example 1, 6-Chloro-7-fluoro-5-methoxy-1-methyl-3-(1H-pyrazol-4-yl)-2-(5-(trifluoromethyl)-4H-1,2,4-triazol-3-yl)-1H-indole] | 7.13
8 | Fc1ccc2c(-c3cn[nH]c3)c(-c3nnc(C(F)(F)F)[nH]3)[nH]c2c1F [Example 14, 6,7-difluoro-3-(1H-pyrazol-4-yl)-2-(5-(trifluoromethyl)-4H-1,2,4-triazol-3-yl)-1H-indole] | 6.71
9 | COc1cc2c(-n3ccnc3)c(-c3nnc(C(=O)N4CCC(O)C4)[nH]3)n(C)c2c(F)c1Cl (centres unmarked) [Example 43, (5-(6-chloro-7-fluoro-3-(1H-imidazol-1-yl)-5-methoxy-1-methyl-1H-indol-2-yl)-4H-1,2,4-triazol-3-yl)(3-hydroxypyrrolidin-1-yl)methanone] | 7.21
10 | COc1cc2c(-c3cn[nH]c3)c(-c3nnc(C(C)(F)F)[nH]3)[nH]c2c(F)c1Cl [Example 67, 6-chloro-2-(5-(1,1-difluoroethyl)-4H-1,2,4-triazol-3-yl)-7-fluoro-5-methoxy-3-(1H-pyrazol-4-yl)-1H-indole] | 7.52
11 | COc1cc2c(-c3cn[nH]c3)c(-c3nnc(C(C)F)[nH]3)n(C)c2c(F)c1Cl (centres unmarked) [Example 72, 6-chloro-7-fluoro-2-(5-(1-fluoroethyl)-4H-1,2,4-triazol-3-yl)-5-methoxy-1-methyl-3-(1H-pyrazol-4-yl)-1H-indole] | 7.21
12 | FC(F)(F)c1nnc(-c2cc3c(Cl)c(Cl)ccc3n2-c2cn[nH]c2)[nH]1 [Example 32, 4,5-dichloro-1-(1H-pyrazol-4-yl)-2-(5-(trifluoromethyl)-4H-1,2,4-triazol-3-yl)-1H-indole] | 6.30
13 | CCOc1cc2c(-c3cn[nH]c3)c(-c3nnc(C(C)=O)[nH]3)n(C)c2c(F)c1Cl [Example 74, 1-(5-(6-chloro-5-ethoxy-7-fluoro-1-methyl-3-(1H-pyrazol-4-yl)-1H-indo1-2-yl)-4H-1,2,4-triazol-3-yl)ethan-1-one] | 6.68
14 | Oc1c(Cl)ccc2c(-c3cn[nH]c3)c(-c3nnc(C(F)(F)F)[nH]3)[nH]c12 [Example 34, 6-chloro-3-(1H-pyrazol-4-yl)-2-(5-(trifluoromethyl)-4H-1,2,4-triazol-3-yl)-1H-indol-7-ol] | 6.02
15 | COCc1nnc(-c2c(-n3ccnc3)c3cc(OC)c(Cl)c(F)c3n2C)[nH]1 [Example 49, 6-chloro-7-fluoro-3-(1H-imidazol-1-yl)-5-methoxy-2-(5-(methoxymethyl)-4H-1,2,4-triazol-3-yl)-1-methyl-1H-indole] | 6.97
16 | COc1cc2c(-c3cn[nH]c3)c(-c3nnc(C(C)(F)F)[nH]3)n(C)c2c(F)c1Cl [Example 68, 6-chloro-2-(5-(1,1-difluoroethyl)-4H-1,2,4-triazol-3-yl)-7-fluoro-5-methoxy-1-methyl-3-(1H-pyrazol-4-yl)-1H-indole] | 7.48
17 | COCc1nnc(-c2c(-n3ccnc3)c3cc(OC)c(Cl)c(C#N)c3n2C)[nH]1 [Example 54, 6-chloro-3-(1H-imidazol-1-yl)-5-methoxy-2-(5-(methoxymethyl)-4H-1,2,4-triazol-3-yl)-1-methyl-1H-indole-7-carbonitrile] | 7.12

Now from value to compound:

Row | pIC50 | SMILES
18 | 6.86 | OCCn1cnc(-c2[nH]c3c(Cl)c(Cl)ccc3c2-c2cn[nH]c2)n1 [Example 37, 2-(3-(6,7-dichloro-3-(1H-pyrazol-4-yl)-1H-indol-2-yl)-1H-1,2,4-triazol-1-yl)ethan-1-ol]
19 | 6.87 | Clc1ccc2c(-c3cn[nH]c3)c(-c3nnc[nH]3)[nH]c2c1Cl [Example 38, 6,7-dichloro-3-(1H-pyrazol-4-yl)-2-(4H-1,2,4-triazol-3-yl)-1H-indole]
20 | 7.39 | COc1cc2c(-c3cn[nH]c3)c(-c3nnc(N(C)C(C)=O)[nH]3)n(C)c2c(F)c1Cl [Example 61, N-(5-(6-chloro-7-fluoro-5-methoxy-1-methyl-3-(1H-pyrazol-4-yl)-1H-indol-2-yl)-4H-1,2,4-triazol-3-yl)-N-methylacetamide]
21 | 7.49 | COc1cc2c(-c3cn[nH]c3)c(-c3nnc(C(C)=O)[nH]3)n(C)c2c(F)c1Cl [Example 60, 1-(5-(6-chloro-7-fluoro-5-methoxy-1-methyl-3-(1H-pyrazol-4-yl)-1H-indol-2-yl)-4H-1,2,4-triazol-3-yl)ethan-1-one]
22 | 6.78 | FC(F)(F)c1nnc(-c2[nH]c3cc(Cl)c(Cl)cc3c2-c2cn[nH]c2)[nH]1 [Example 18, 5,6-dichloro-3-(1H-pyrazol-4-yl)-2-(5-(trifluoromethyl)-4H-1,2,4-triazol-3-yl)-1H-indole]
23 | 7.32 | Cn1c(-c2nnc(C(F)(F)F)[nH]2)c(-c2cn[nH]c2)c2ccc(Cl)c(Cl)c21 [Example 12, 6,7-dichloro-1-methyl-3-(1H-pyrazol-4-yl)-2-(5-(trifluoromethyl)-4H-1,2,4-triazol-3-yl)-1H-indole]
24 | 7.03 | COc1cc2c(-n3ccnc3)c(-c3nnc(N(C)CCO)[nH]3)n(C)c2c(F)c1Cl [Example 90, 2-((5-(6-chloro-7-fluoro-3-(1H-imidazol-1-yl)-5-methoxy-1-methyl-1H-indol-2-yl)-4H-1,2,4-triazol-3-yl)(methyl)amino)ethan-1-ol]
25 | 7.42 | COc1cc2c(-c3cn[nH]c3)c(-c3nnc(C(F)(F)CO)[nH]3)n(C)c2c(F)c1Cl [Example 69, 2-(5-(6-chloro-7-fluoro-5-methoxy-1-methyl-3-(1H-pyrazol-4-yl)-1H-indol-2-yl)-4H-1,2,4-triazol-3-yl)-2,2-difluoroethan-1-ol]
26 | 7.32 | COc1cc2c(-n3ccnc3)c(-c3nnc(C(=O)N(C)C)[nH]3)n(C)c2c(F)c1Cl [Example 39, 5-(6-chloro-7-fluoro-3-(1H-imidazol-1-yl)-5-methoxy-1-methyl-1H-indol-2-yl)-N,N-dimethyl-4H-1,2,4-triazole-3-carboxamide]
27 | 7.13 | COCC(F)c1nnc(-c2[nH]c3c(Cl)c(Cl)ccc3c2-c2cn[nH]c2)[nH]1 (centres unmarked) [Example 10, 6,7-dichloro-2-(5-(1-fluoro-2-methoxyethyl)-4H-1,2,4-triazol-3-yl)-3-(1H-pyrazol-4-yl)-1H-indole]
28 | 7.52 | COCC(F)(F)c1nnc(-c2c(-c3cn[nH]c3)c3cc(OC)c(Cl)c(C#N)c3n2C)[nH]1 [Example 73, 6-chloro-2-(5-(1,1-difluoro-2-methoxyethyl)-4H-1,2,4-triazol-3-yl)-5-methoxy-1-methyl-3-(1H-pyrazol-4-yl)-1H-indole-7-carbonitrile]
29 | 7.03 | Clc1ccc2c(-c3cn[nH]c3)c(-c3nnc(Br)[nH]3)[nH]c2c1Cl [Example 5, 2-(5-bromo-4H-1,2,4-triazol-3-yl)-6,7-dichloro-3-(1H-pyrazol-4-yl)-1H-indole]

Source: patent publication US12404261B2, “Compounds and compositions for treating conditions associated with cGAS” (Novartis AG, priority 2020, dated 2025)
